Measured values published in patent US8163776B2, “Method of immunomodulation using thione-forming disulfides” (Grassetti family Trust, priority 2001, dated 2012).
Values joined by “and” are separate entries in the source; they are usually repeats but may differ in a detail not shown here. Equal entries are not always repeated.

Experiments:
[1] = Weight gain of mice on CPDS diet; format: in vivo, BALB/c mice
Protocol: To prepare a CPDS diet, a total of 3 kilos of Standard Purina chow was reduced to powder using a grinder. About 12 g of CPDS was added to the powder and thoroughly mixed, re-hydrated and reconstituted into pellets. Pellets were allowed to dry overnight.
Male adult BALB/c mice were weighed and randomly divided to form the experimental groups. Mice were allowed to acclimatized 3 days prior to the beginning of the experiments. Mice from the control normal diet groups were fed ad libitum with standard Purina mouse chow. Mice from the CPDS treated groups were fed ad libitum with the CPDS preparation. The amount of food given was weighted and recorded to allow the evaluation of the CPDS dosage.
The weight gained by each mice was evaluated weekly and prior to sacrifice. Mice were sacrificed by overexposure to CO2. The spleen from each mouse was collected under sterile conditions, transferred into HBSS buffered solution and kept on ice until used for other studies disclosed. Experiments were performed on the same day.

[2] = literature statement; cited from earlier work
splenocytes = assay: Total splenocyte (lymphocyte) count, trypan blue exclusion; format: in vivo, BALB/c mice; settings: for Total Lymphocyte Counts: spleen
Protocol: Splenocytes were isolated by obtaining spleen from the sacrificed mice on the same experimental day, homogenizing the spleen using a 50-M mesh screen, and suspending the homogenate in 25 ml of RPMI 1640. The splenocyte suspension was washed and then spun at 1200 rpm for 5 minutes. The red blood cells were lysed by an osmotic choc with distilled water. The splenocyte suspension was washed and spun at 1200 rpm for 5 minutes. The splenocytes were suspended in complete RPMI media (90% RPMI 1640, 10% FBS, antibiotics 1×, HEPES 1 mM) and the suspension was filtered through cotton wool. Cells were counted using trypan blue exclusion method. Total splenocyte count was recorded (Table 7). Cells were kept on ice and diluted to the appropriate concentration for the corresponding experimental procedures.
To count splenocytes, two chambers of the hemacytometer were counted and the mean was calculated. The total splenocyte count was calculated by the following formula: Total splenocyte count=mean count×10 (dilution factor)×10^4×suspension volume. The mean was calculated for each control and treated group. Student's T test was performed between the control group and the treated group. The p value was calculated for statistical significance. Following spleen homogenization, the total number of splenocytes isolated was counted using a standard trypan blue method which discriminates between viable and non viable cells.

[3] = test system: feline immunodeficiency virus (FIV); assay: CPDS in an FIV-infected cat (Example 8); format: in vivo
Protocol: A cat infected with feline immunodeficiency virus (FIV) was given 140 mg CPDS each morning. The CPDS was mixed with the cat's chow (food). The 140 mg CDPS dosage regimen was continued for 2 weeks. At this time, the cat's overall conditions (thin facial hair, dull eyes, excorations of the skin, appetite, general behavior) improved. After the 2 week timepoint, the dosage regimen was increased to 140 mg CPDS every morning and night (280 mg CPDS daily), mixed in the cat chow. […] The cat's eyes were bright, facial hair was thick, appearance of hair was shiny, and the cat regained its appetite and gained 300 g in weight.

[4] = Group 2 (30 days CPDS diet), group Mean ± S.D.
[5] = Group 2 (30 days CPDS diet), individual mice
[6] = Group 4 (45 days CPDS diet), group Mean ± S.D.
[7] = Group 4 (45 days CPDS diet), individual mice
[8] = Group 6 (6 days CPDS diet), group Mean ± S.D.
[9] = Group 6 (6 days CPDS diet), individual mice

Animal weight, Day 0 [1, 4]: 14.87 ± 1.18 g
Animal weight, Day 6 [1, 4]: 17.89 ± 1.2 g
Animal weight, Day 14 [1, 4]: 19.36 ± 0.9 g
Animal weight, Day 21 [1, 4]: 20.50 ± 0.9 g
Animal weight, Day 28 [1, 4]: 22.04 ± 1.0 g
Animal weight, Day 0 [1, 6]: 14.57 ± 0.8 g
Animal weight, Day 6 [1, 6]: 17.74 ± 1.0 g
Animal weight, Day 14 [1, 6]: 18.92 ± 1.1 g
Animal weight, Day 21 [1, 6]: 19.86 ± 1.1 g
Animal weight, Day 28 [1, 6]: 21.60 ± 1.2 g
Animal weight, Day 35 [1, 6]: 22.19 ± 1.1 g
Animal weight, Day 45 [1, 6]: 22.78 ± 1.1 g
Animal weight, Day 0 [1, 8]: 15.15 ± 1.1 g
Animal weight, Day 6 [1, 8]: 18.40 ± 0.7 g
Animal weight, Day 0 [1, 9]: 13.90 g and 16.04 g and 15.50 g
Animal weight, Day 6 [1, 9]: 17.60 g and 19.18 g and 18.43 g
Course of animal weight (in words) ([1]; group fed CPDS diet for 45 days, food intake constant): stabilized after day 35
Weight gain (in words) ([1]; groups fed CPDS diet for 6 and 30 days): constant and normal
SMILES: O=C(O)c1ccc(SSc2ccc(C(=O)O)cn2)nc1 [CPDS, 6,6′-dithiodinicotinic acid]
Animal weight, Day 0 [1, 5]: 15.87 g and 15.18 g and 12.76 g and 15.67 g and 15.69 g and 15.29 g and 15.25 g and 13.28 g
Animal weight, Day 6 [1, 5]: 18.64 g and 19.84 g and 15.20 g and 18.31 g and 18.66 g and 18.54 g and 17.98 g and 16.92 g
Animal weight, Day 14 [1, 5]: 19.66 g and 20.46 g and 17.47 g and 19.96 g and 19.78 g and 19.09 g and 19.84 g and 18.65 g
Animal weight, Day 21 [1, 5]: 20.10 g and 21.36 g (2×) and 18.72 g and 21.20 g and 20.58 g and 20.79 g and 19.87 g
Animal weight, Day 28 [1, 5]: 21.96 g and 22.76 g and 19.99 g and 22.98 g and 22.80 g and 22.31 g and 22.57 g and 20.94 g
Animal weight, Day 0 [1, 7]: 13.58 g and 16.07 g and 14.28 g and 13.75 g and 14.89 g and 15.10 g and 13.67 g and 15.20 g
Animal weight, Day 6 [1, 7]: 17.25 g and 18.57 g and 17.03 g and 16.46 g and 17.79 g and 18.38 g and 16.98 g and 19.46 g
Animal weight, Day 14 [1, 7]: 18.57 g (2×) and 20.58 g and 18.25 g and 17.66 g and 18.83 g and 18.02 g and 20.86 g
Animal weight, Day 21 [1, 7]: 19.72 g and 21.59 g and 19.22 g and 18.38 g and 19.40 g and 19.35 g and 19.45 g and 21.74 g
Animal weight, Day 28 [1, 7]: 21.40 g (2×) and 23.72 g and 20.35 g and 20.18 g and 21.41 g and 21.14 g and 23.19 g
Animal weight, Day 35 [1, 7]: 21.82 g and 24.00 g and 20.91 g and 20.95 g and 22.47 g and 21.39 g and 22.28 g and 23.68 g
Animal weight, Day 45 [1, 7]: 22.71 g and 24.66 g and 20.96 g and 21.78 g and 23.15 g and 22.10 g and 23.09 g and 23.80 g
Weight gain vs group on normal Purina chow (in words) ([1]; group fed CPDS for 45 days, p=0.01432): statistically significant lower weight gain
Toxicity [2]: low toxicity
Total Lymphocyte Counts, variation (splenocytes; Group 2, 30 days on CPDS diet vs group 1 (normal diet)): −15.58%
Total Lymphocyte Counts (splenocytes; Group 2, 30 days on CPDS diet, group Mean): 5.01 × 10^7
Total Lymphocyte Counts (splenocytes; Group 2, 30 days on CPDS diet, individual mice): 3.94 × 10^7 and 5.18 × 10^7 and 6.03 × 10^7 and 4.47 × 10^7 and 5.54 × 10^7 and 5.91 × 10^7 and 4.77 × 10^7 and 4.25 × 10^7
Total Lymphocyte Counts, variation (splenocytes; Group 6, 6 days on CPDS diet vs group 5 (normal diet)): −30.97%
Total Lymphocyte Counts (splenocytes; Group 6, 6 days on CPDS diet, group Mean): 4.16 × 10^7
Total Lymphocyte Counts (splenocytes; Group 6, 6 days on CPDS diet, individual mice): 3.08 × 10^7 and 4.58 × 10^7
Necrosis or loss of splenocyte viability (splenocytes; after 6 and 30 days CPDS diet): No signs of necrosis or loss of splenocyte viability were observed
Cat's overall conditions (facial hair, eyes, skin, appetite, general behavior) ([3]; FIV-infected cat, 140 mg CPDS each morning in chow for 2 weeks): improved
Physical condition, appearance and behavior ([3]; FIV-infected cat, 280 mg CPDS daily for a total of 59 days): improved physical condition, improved overall physical appearance, and improved behavior
Weight gained by the cat ([3]; FIV-infected cat, after 30 days): 300 g
Cat's overall conditions ([3]; FIV-infected cat, after 30 days, 280 mg CPDS daily after week 2): overall conditions had improved
Health of the cat at follow-up ([3]; after treatment for 100 days and a year and half after treatment): appeared entirely healthy
